From ChEMBL document CHEMBL3045862, “PRE-CLINICAL AND CLINICAL PHARMACOKINETICS OF THE DIASTEREOMERS OF ARTEETHER, A POTENT ANTIMALARIAL” (Med Chem Res, 2004)

What was measured:
[1] = Mean residence time in Rattus norvegicus Sprague-Dawley (rat) at 30 mg/kg, administered intramuscularly; type: ADME, organism-based; design: dose 30 mg/kg, route intramuscular; details: in vivo, im
[2] = Tmax in Macaca mulatta (Rhesus monkey) at 7.5 mg/kg, administered intramuscularly; type: ADME, organism-based; design: dose 7.5 mg/kg, route intramuscular; details: in vivo, im
[3] = Mean residence time in Rattus norvegicus Sprague-Dawley (rat) at 2 mg/kg, iv; type: ADME, organism-based; design: dose 2 mg/kg, route intravenous; details: in vivo
[4] = Clearance in Macaca mulatta (Rhesus monkey) at 4 mg/kg, iv; type: ADME, organism-based; design: dose 4 mg/kg, route intravenous; details: in vivo
[5] = Cmax in Macaca mulatta (Rhesus monkey) at 7.5 mg/kg, administered intramuscularly; type: ADME, organism-based; design: dose 7.5 mg/kg, route intramuscular; details: in vivo, im
[6] = Tmax in Rattus norvegicus Sprague-Dawley (rat) at 9 mg/kg, administered intramuscularly; type: ADME, organism-based; design: dose 9 mg/kg, route intramuscular; details: in vivo, im
Rattus norvegicus [7] = assay: Volume of distribution in Rattus norvegicus Sprague-Dawley (rat) at 30 mg/kg, administered intramuscularly; type: ADME, organism-based; design: dose 30 mg/kg, route intramuscular; details: in vivo, im
[8] = Elimination half life in Rattus norvegicus Sprague-Dawley (rat) at 9 mg/kg, administered intramuscularly; type: ADME, organism-based; design: dose 9 mg/kg, route intramuscular; details: in vivo, im, read-out: beta t1/2 (converted)
[9] = Cmax in Rattus norvegicus Sprague-Dawley (rat) at 9 mg/kg, po; type: ADME, organism-based; design: dose 9 mg/kg, route oral; details: in vivo
Rattus norvegicus [10] = assay: Dose normalized AUC in Rattus norvegicus Sprague-Dawley (rat) at 2 mg/kg, iv; type: ADME, organism-based; design: dose 2 mg/kg, route intravenous; details: in vivo
Rattus norvegicus [11] = assay: Dose normalized AUC in Rattus norvegicus Sprague-Dawley (rat) at 9 mg/kg, administered intramuscularly; type: ADME, organism-based; design: dose 9 mg/kg, route intramuscular; details: in vivo, im
[12] = AUC (0 to infinity) in Rattus norvegicus Sprague-Dawley (rat) at 9 mg/kg, po; type: ADME, organism-based, Plasma; design: time infinity, dose 9 mg/kg, route oral; details: Sprague-Dawley, plasma
[13] = Volume of distribution in Rattus norvegicus Sprague-Dawley (rat) at 2 mg/kg, iv; type: ADME, organism-based; design: dose 2 mg/kg, route intravenous; details: in vivo
[14] = Mean residence time in Macaca mulatta (Rhesus monkey) at 50 mg/kg, po; type: ADME, organism-based; design: dose 50 mg/kg, route oral; details: in vivo
Homo sapiens = species: Homo sapiens; assay: Dose normalized AUC in Homo sapiens (human) at 150 mg; type: ADME, organism-based; details: in vivo
[15] = Mean residence time in Rattus norvegicus Sprague-Dawley (rat) at 30 mg/kg, po; type: ADME, organism-based; design: dose 30 mg/kg, route oral; details: in vivo
[16] = Volume of distribution in Macaca mulatta (Rhesus monkey) at 4 mg/kg, iv; type: ADME, organism-based; design: dose 4 mg/kg, route intravenous; details: in vivo
[17] = Tmax in Rattus norvegicus Sprague-Dawley (rat) at 9 mg/kg, po; type: ADME, organism-based; design: dose 9 mg/kg, route oral; details: in vivo
[18] = Tmax in Homo sapiens (human) at 150 mg; type: ADME, organism-based; details: in vivo
[19] = Cmax in Rattus norvegicus Sprague-Dawley (rat) at 17.5 mg/kg, administered intramuscularly; type: ADME, organism-based; design: dose 17.5 mg/kg, route intramuscular; details: in vivo, im
[20] = Mean residence time in Rattus norvegicus Sprague-Dawley (rat) at 9 mg/kg, administered intramuscularly; type: ADME, organism-based; design: dose 9 mg/kg, route intramuscular; details: in vivo, im
[21] = Elimination half life in Rattus norvegicus Sprague-Dawley (rat) at 17.5 mg/kg, administered intramuscularly; type: ADME, organism-based; design: dose 17.5 mg/kg, route intramuscular; details: in vivo, im, read-out: beta t1/2 (converted)
Rattus norvegicus [22] = assay: Dose normalized AUC in Rattus norvegicus Sprague-Dawley (rat) at 30 mg/kg, po; type: ADME, organism-based; design: dose 30 mg/kg, route oral; details: in vivo
[23] = Mean residence time in Rattus norvegicus Sprague-Dawley (rat) at 17.5 mg/kg, po; type: ADME, organism-based; design: dose 17.5 mg/kg, route oral; details: in vivo
[24] = Mean residence time in Macaca mulatta (Rhesus monkey) at 7.5 mg/kg, administered intramuscularly; type: ADME, organism-based; design: dose 7.5 mg/kg, route intramuscular; details: in vivo, im
[25] = Cmax in Rattus norvegicus Sprague-Dawley (rat) at 9 mg/kg, administered intramuscularly; type: ADME, organism-based; design: dose 9 mg/kg, route intramuscular; details: in vivo, im
[26] = Cmax in Macaca mulatta (Rhesus monkey) at 50 mg/kg, po; type: ADME, organism-based; design: dose 50 mg/kg, route oral; details: in vivo
Rattus norvegicus [27] = assay: Dose normalized AUC in Rattus norvegicus Sprague-Dawley (rat) at 9 mg/kg, po; type: ADME, organism-based; design: dose 9 mg/kg, route oral; details: in vivo
[28] = AUC (0 to infinity) in Rattus norvegicus Sprague-Dawley (rat) at 30 mg/kg, po; type: ADME, organism-based, Plasma; design: time infinity, dose 30 mg/kg, route oral; details: Sprague-Dawley, plasma
[29] = Tmax in Rattus norvegicus Sprague-Dawley (rat) at 30 mg/kg, administered intramuscularly; type: ADME, organism-based; design: dose 30 mg/kg, route intramuscular; details: in vivo, im
[30] = Clearance in Homo sapiens (human) at 150 mg; type: ADME, organism-based; details: in vivo
Rattus norvegicus [31] = assay: Volume of distribution in Rattus norvegicus Sprague-Dawley (rat) at 17.5 mg/kg, po; type: ADME, organism-based; design: dose 17.5 mg/kg, route oral; details: in vivo
[32] = AUC (0 to infinity) in Rattus norvegicus Sprague-Dawley (rat) at 9 mg/kg, administered intramuscularly; type: ADME, organism-based, Plasma; design: time infinity, dose 9 mg/kg, route intramuscular; details: Sprague-Dawley, plasma, im
Rhesus monkey [33] = assay: Dose normalized AUC in Macaca mulatta (Rhesus monkey) at 50 mg/kg, po; type: ADME, organism-based; design: dose 50 mg/kg, route oral; details: in vivo
[34] = Volume of distribution in Homo sapiens (human) at 150 mg; type: ADME, organism-based; details: in vivo
[35] = AUC (0 to infinity) in Rattus norvegicus Sprague-Dawley (rat) at 17.5 mg/kg, administered intramuscularly; type: ADME, organism-based, Plasma; design: dose 17.5 mg/kg, route intramuscular, time infinity; details: Sprague-Dawley, plasma, im
Rhesus monkey [36] = assay: Dose normalized AUC in Macaca mulatta (Rhesus monkey) at 7.5 mg/kg, administered intramuscularly; type: ADME, organism-based; design: dose 7.5 mg/kg, route intramuscular; details: in vivo, im
[37] = AUC (0 to infinity) in Macaca mulatta (Rhesus monkey) at 4 mg/kg, iv; type: ADME, organism-based, Plasma; design: time infinity, dose 4 mg/kg, route intravenous; details: plasma
[38] = Elimination half life in Macaca mulatta (Rhesus monkey) at 50 mg/kg, po; type: ADME, organism-based; design: dose 50 mg/kg, route oral; details: in vivo, read-out: beta t1/2 (converted)
[39] = Elimination half life in Rattus norvegicus Sprague-Dawley (rat) at 17.5 mg/kg, po; type: ADME, organism-based; design: dose 17.5 mg/kg, route oral; details: in vivo, read-out: beta t1/2 (converted)

CCO[C@H]1O[C@@H]2O[C@@]3(C)CC[C@H]4[C@H](C)CC[C@@H]([C@H]1C)[C@@]24OO3 [ARTEMOTIL]
MRT [1]: 44.2 h | Tmax [2]: 1.83 h | MRT [3]: 0.9 h | clearance [4]: 38.3 mL/min/kg | Cmax [5]: 45.2 ng/mL | Tmax [6]: 0.333 h | Vd (Rattus norvegicus [7]): 1660.6 L/kg | half-life [8]: 28.5 h | Cmax [9]: 10.3 ng/mL | AUC/dose (Rattus norvegicus [10]): 132 ng·h/mL | AUC/dose (Rattus norvegicus [11]): 187.8 ng·h/mL | AUC(0-inf) [12]: 46.8 ng·h/mL | Vd [13]: 9.3 L/kg | MRT [14]: 5.8 h | AUC/dose (Homo sapiens): 1315.7 ng·h/mL | MRT [15]: 3.4 h | Vd [16]: 8.6 L/kg | Tmax [17]: 5 min | Tmax [18]: 6.9 min | Cmax [19]: 136 ng/mL | MRT [20]: 40.8 h | half-life [21]: 27.5 h | AUC/dose (Rattus norvegicus [22]): 1.2 ng·h/mL | MRT [23]: 6.9 h | MRT [24]: 26.7 h | Cmax [25]: 39.8 ng/mL | Cmax [26]: 1.7 ng/mL | AUC/dose (Rattus norvegicus [27]): 7.4 ng·h/mL | AUC(0-inf) [28]: 25.6 ng·h/mL | Tmax [29]: 0.167 h | clearance [30]: 13.3 mL/min/kg | Vd (Rattus norvegicus [31]): 1965.9 L/kg | AUC(0-inf) [32]: 1180 ng·h/mL | AUC/dose (Rhesus monkey [33]): 0.2 ng·h/mL | Vd [34]: 36.2 L/kg | AUC(0-inf) [35]: 2410 ng·h/mL | AUC/dose (Rhesus monkey [36]): 142.2 ng·h/mL | AUC(0-inf) [37]: 1220 ng·h/mL | half-life [38]: 4.4 h | half-life [39]: 4.5 h
